Source: BigSolDB 2.1

O=C(O)CCCC(=O)O
Conditions	solubility (mole fraction)
in acetic acid, 292.75 K	0.162
in acetic acid, 297.84 K	0.183
in acetic acid, 301.3 K	0.203
in acetic acid, 304.47 K	0.221
in acetic acid, 307.28 K	0.241
in acetic acid, 310.19 K	0.257
in acetic acid, 313.64 K	0.28
in acetic acid, 316.5 K	0.302
in acetic acid, 319.05 K	0.323
in acetic acid, 321.38 K	0.345
in acetic acid, 325.45 K	0.373
in acetic acid, 327.38 K	0.399
in acetic acid, 332.97 K	0.436
in acetic acid, 335.25 K	0.478
in acetic acid, 338.05 K	0.514
in acetic acid, 341.94 K	0.553
in acetic acid, 344.21 K	0.585
in acetic acid, 347.24 K	0.621
in acetic acid, 349.88 K	0.651
in acetic acid, 353.36 K	0.712
in cyclohexanol, 299.75 K	0.205
in cyclohexanol, 302.7 K	0.219
in cyclohexanol, 305.85 K	0.234
in cyclohexanol, 308.6 K	0.25
in cyclohexanol, 313.19 K	0.271
in cyclohexanol, 316 K	0.288
in cyclohexanol, 318.55 K	0.312
in cyclohexanol, 320.55 K	0.33
in cyclohexanol, 325.15 K	0.366
in cyclohexanol, 326.5 K	0.371
in cyclohexanol, 332.55 K	0.428
in cyclohexanol, 334.9 K	0.455
in cyclohexanol, 336.3 K	0.477
in cyclohexanol, 339.75 K	0.511
in cyclohexanol, 342.15 K	0.545
in cyclohexanol, 344.8 K	0.571
in cyclohexanol, 347.19 K	0.622
in cyclohexanol, 350.05 K	0.66
in cyclohexanol, 351.93 K	0.693
in cyclohexanol, 352.48 K	0.719
in cyclohexanol, 352.95 K	0.748
in cyclohexanone, 294 K	0.161
in cyclohexanone, 299.7 K	0.189
in cyclohexanone, 304.5 K	0.213
in cyclohexanone, 308.05 K	0.241
in cyclohexanone, 311.94 K	0.264
in cyclohexanone, 314.15 K	0.283
in cyclohexanone, 317.54 K	0.307
in cyclohexanone, 320.3 K	0.334
in cyclohexanone, 325.05 K	0.366
in cyclohexanone, 326.95 K	0.392
in cyclohexanone, 330.5 K	0.428
in cyclohexanone, 333.81 K	0.458
in cyclohexanone, 335.23 K	0.478
in cyclohexanone, 338.35 K	0.513
in cyclohexanone, 342.65 K	0.557
in cyclohexanone, 346.8 K	0.598
in cyclohexanone, 347.65 K	0.627
in cyclohexanone, 349.7 K	0.655
in cyclohexanone, 351.5 K	0.679
in cyclohexanone, 353.65 K	0.705
